Data as given in PubChem BioAssay AID190 (DTP/NCI, 2004).
Where “and” joins values, the source holds several entries; their conditions need not be identical. Equal entries are not always repeated. Inconclusive results and toxic doses are left out. How the source made its calls: active means survival T/C of 150% or more; inactive means T/C below 125% in these data.

Test system: AKR/Lw mice, AKR lymphoma ip, median survival T/C
Assay: NCI In Vivo Anticancer Drug Screen. Data for tumor model Lymphoma AKR (Transplanted) (intraperitoneal) in AKR/Lw mice
Conditions: endpoint: median survival time, higher = longer survival
Description: The antitumor activity of compounds was measured in mice bearing transplantable tumors. Survival or tumor size were measured and the results are expressed as the measurement made in the treated group (T) divided by the measurement made in the vehicle treated control group (C). The tumor model used in this assay is Lymphoma AKR (Transplanted) (intraperitoneal) in AKR/Lw mice

Measured: T/C

NC(CSC(c1ccccc1)(c1ccccc1)c1ccccc1)C(=O)O (stereo unspecified)
inactive: dose: 0.6 mg/kg/injection, schedule: Q01DX009 (ip), vehicle: Klucel (hydroxypropylcellulose) (HPC) 111 % of control | dose: 1.2 mg/kg/injection, schedule: Q01DX009 (ip), vehicle: Klucel (hydroxypropylcellulose) (HPC) 114 % of control and 117 % of control | dose: 2.5 mg/kg/injection, schedule: Q01DX009 (ip), vehicle: Klucel (hydroxypropylcellulose) (HPC) 117 % of control | dose: 5.0 mg/kg/injection, schedule: Q01DX009 (ip), vehicle: Klucel (hydroxypropylcellulose) (HPC) 88 % of control and 120 % of control | dose: 6.0 mg/kg/injection, schedule: Q01DX009 (ip), vehicle: Klucel (hydroxypropylcellulose) (HPC) 94 % of control | dose: 6.2 mg/kg/injection, schedule: Q04DX003 (ip), vehicle: Klucel (hydroxypropylcellulose) (HPC) 108 % of control | dose: 6.25 mg/kg/injection, schedule: Q01DX009 (ip), vehicle: Klucel (hydroxypropylcellulose) (HPC) 94 % of control | dose: 10.0 mg/kg/injection, schedule: Q01DX009 (ip), vehicle: Klucel (hydroxypropylcellulose) (HPC) 102 % of control | dose: 12.0 mg/kg/injection, schedule: Q01DX009 (ip), vehicle: Klucel (hydroxypropylcellulose) (HPC) 88 % of control | dose: 12.5 mg/kg/injection, schedule: Q01DX009 (ip), vehicle: Klucel (hydroxypropylcellulose) (HPC) 94 % of control | dose: 12.5 mg/kg/injection, schedule: Q04DX003 (ip), vehicle: Klucel (hydroxypropylcellulose) (HPC) 91 % of control and 94 % of control and 102 % of control | dose: 20.0 mg/kg/injection, schedule: Q01DX009 (ip), vehicle: Klucel (hydroxypropylcellulose) (HPC) 102 % of control and 108 % of control | dose: 25.0 mg/kg/injection, schedule: Q01DX009 (ip), vehicle: Klucel (hydroxypropylcellulose) (HPC) 91 % of control and 100 % of control | dose: 25.0 mg/kg/injection, schedule: Q01DX009 (ip), vehicle: saline 94 % of control and 97 % of control and 109 % of control | dose: 25.0 mg/kg/injection, schedule: Q04DX003 (ip), vehicle: Klucel (hydroxypropylcellulose) (HPC) 94 % of control and 97 % of control | dose: 25.0 mg/kg/injection, schedule: Q04DX003 (ip), vehicle: saline 102 % of control | dose: 37.5 mg/kg/injection, schedule: Q01DX001 (ip), vehicle: saline 102 % of control and 103 % of control (2×) | dose: 50.0 mg/kg/injection, schedule: Q01DX009 (ip), vehicle: saline 105 % of control | dose: 50.0 mg/kg/injection, schedule: Q04DX003 (ip), vehicle: saline 97 % of control | dose: 75.0 mg/kg/injection, schedule: Q01DX001 (ip), vehicle: saline 95 % of control and 103 % of control and 110 % of control | dose: 100.0 mg/kg/injection, schedule: Q01DX001 (ip), vehicle: Klucel (hydroxypropylcellulose) (HPC) 97 % of control | dose: 100.0 mg/kg/injection, schedule: Q01DX001 (ip), vehicle: saline 100 % of control | dose: 100.0 mg/kg/injection, schedule: Q04DX003 (ip), vehicle: saline 91 % of control | dose: 150.0 mg/kg/injection, schedule: Q01DX001 (ip), vehicle: saline 90 % of control and 105 % of control and 106 % of control | dose: 200.0 mg/kg/injection, schedule: Q01DX001 (ip), vehicle: Klucel (hydroxypropylcellulose) (HPC) 109 % of control | dose: 400.0 mg/kg/injection, schedule: Q01DX001 (ip), vehicle: Klucel (hydroxypropylcellulose) (HPC) 118 % of control
